Data as given in ChEMBL document CHEMBL1201862, “PubChem BioAssay data set” (2004).
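Interpolation was linear, between the two tested concentrations surrounding the appropriate level; five concentrations were tested over 48 hours in 96-well plates. GI50: concentration for 50% inhibition of growth.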 Calls of active or inactive are those of the source. No stated cut-off is given here; in the data, active = GI50 up to about 1.1 µM and inactive = higher.

Tests used:
Assay in all cases: NCI anticancer screen, dose series, 48 h
NCI-H23 = system: NCI-H23
SF-539 = system: SF-539
NCI-H226 = system: NCI-H226
A549 = system: A549
IGROV-1 = system: IGROV-1
HCC 2998 = system: HCC 2998
SK-OV-3 = system: SK-OV-3
EKVX = system: EKVX
KM12 = system: KM12
HOP-62 = system: HOP-62
OVCAR-8 = system: OVCAR-8
CCRF-CEM = system: CCRF-CEM
NCI/ADR-RES = system: NCI/ADR-RES
OVCAR-3 = system: OVCAR-3
NCI-H522 = system: NCI-H522
Malme-3M = system: Malme-3M
UO-31 = system: UO-31
LOX IMVI = system: LOX IMVI
HCT-15 = system: HCT-15
A498 = system: A498

CCN(CC)CCCNc1[nH]c2ccccc2c2nc3ccc(OC)cc3c1-2
GI50 (NCI-H23): 1570 nM (inactive)
GI50 (SF-539): 2160 nM (inactive)
GI50 (NCI-H226): 3400 nM (inactive)
GI50 (A549): 1430 nM (inactive)
GI50 (IGROV-1): 1710 nM (inactive)
GI50 (HCC 2998): 1120 nM (inactive)
GI50 (SK-OV-3): 3080 nM (inactive)
GI50 (EKVX): 1710 nM (inactive)
GI50 (KM12): 695 nM (active)
GI50 (HOP-62): 1430 nM (inactive)
GI50 (OVCAR-8): 824 nM (active)
GI50 (CCRF-CEM): 610 nM (active)
GI50 (NCI/ADR-RES): 1270 nM (inactive)
GI50 (OVCAR-3): 3310 nM (inactive)
GI50 (NCI-H522): 1460 nM (inactive)
GI50 (Malme-3M): 1760 nM (inactive)
GI50 (UO-31): 4010 nM (inactive)
GI50 (LOX IMVI): 1110 nM (active)
GI50 (HCT-15): 1210 nM
GI50 (A498): 2120 nM (inactive)
